Data as given in US20210252265A1, “DEVICES AND METHODS FOR ULTRASONIC DELIVERY OF AN AGENT WITHIN AN ORAL CAVITY” (Suono Bio, Inc., priority 2018, published 2021).

Tested on: oral inflammatory lesions in hamster cheek pouches
Test: Treatment of acetic acid-induced oral inflammatory lesions in hamster cheek pouches
Assay type: in vivo, Golden Syrian hamsters
Conditions: mean +/- SEM
Experimental: FIG. 10 is a schematic of the procedure used to test delivery of budesonide to treat or prevent ulcers induced by acetic acid in hamster cheek pouches. 50% acetic acid was administered for 60 seconds. Male Golden Syrian hamsters weighing 100-120 g (Charles River Laboratories, Wilmington, Mass.) were used as received and randomly assigned to experimental groups by the researchers performing the work. To limit pain and distress, all animals received buprenorphine sustained release (SR) (subcutaneous administration, 1 mg/kg body weight, compounded by ZooPharm) just prior to the application of acetic acid for the induction of the oral lesion on day 0. All manipulations occurred with the animal under general anesthesia by inhaled isoflurane. Experimental treatment groups included topical application of budesonide solution with (Budesonide+US) and without (Budesonide) ultrasound. A positive disease control receiving no treatment was also included (Disease). Treatment was administered on day 0 immediately prior to lesion induction using acetic acid. While under general anesthesia, the left cheek pouch was everted, the device was placed on the buccal surface, and the fluid chamber filled with solubilized budesonide solution (0.1%, ˜1 mL). For the Budesonide+US treatment group, ultrasound was simultaneously applied for 3 seconds at an intensity of 5 W/cm2 and a 100% duty cycle. In experimental groups receiving budesonide only (Budesonide), drug was applied as described above without turning the ultrasound on. Immediately following budesonide treatment, oral lesions were induced by topical application of acetic acid (50% solution) as described in previous studies. Briefly, acetic acid was applied to the buccal surface using a liquid holder with a circular area of 5 mm2 for 60 seconds. After acetic acid application, the hamsters were placed back into their cages to recover. On every subsequent day, the cheek pouches were everted to reveal the lesion and an image captured to quantify lesion size. Treatments were then applied as described above. Lesion size was measured using ImageJ (National Institutes of Health, Bethesda, Md.). All data analysis was performed using GraphPad Prism software (GraphPad Software, Inc., La Jolla, Calif., USA). Two-group comparisons were made using Student's unpaired t-test using Welch's correction. Multiple comparisons were made using one-way ANOVA followed by Tukey's post-test. For all comparisons, p<0.05 was considered statistically significant. Data are reported as mean±standard error of the mean (SEM) except for temperature measurements that are reported as mean±standard deviation (SD).

CCCC1O[C@@H]2C[C@H]3[C@@H]4CCC5=CC(=O)C=C[C@]5(C)[C@H]4[C@@H](O)C[C@]3(C)[C@]2(C(=O)CO)O1 (stereo partly shown) [Budesonide]
oral lesion size (24 hours post-acetic acid induced injury, budesonide solution 0.1% with 40 kHz ultrasound 3 seconds, 5 W/cm2): 15.7+/−1.3 mm2
oral lesion size (24 hours post-acetic acid induced injury, topical budesonide solution 0.1% without ultrasound): 20.3+/−1.1 mm2
oral lesion size (48 hours after acetic acid-induced injury, budesonide with ultrasound): 18.71+/−2.3 mm2
oral lesion size (48 hours after acetic acid-induced injury, topical budesonide without ultrasound): 25.5+/−1.6 mm2
